The first experiment has as its target T1, purified human HDAC6 (Homo sapiens, UniProt Q9UBN7).
T1 construct: purchased BPS Bioscience 5006
T1 sequence (Q9UBN7 1-1215): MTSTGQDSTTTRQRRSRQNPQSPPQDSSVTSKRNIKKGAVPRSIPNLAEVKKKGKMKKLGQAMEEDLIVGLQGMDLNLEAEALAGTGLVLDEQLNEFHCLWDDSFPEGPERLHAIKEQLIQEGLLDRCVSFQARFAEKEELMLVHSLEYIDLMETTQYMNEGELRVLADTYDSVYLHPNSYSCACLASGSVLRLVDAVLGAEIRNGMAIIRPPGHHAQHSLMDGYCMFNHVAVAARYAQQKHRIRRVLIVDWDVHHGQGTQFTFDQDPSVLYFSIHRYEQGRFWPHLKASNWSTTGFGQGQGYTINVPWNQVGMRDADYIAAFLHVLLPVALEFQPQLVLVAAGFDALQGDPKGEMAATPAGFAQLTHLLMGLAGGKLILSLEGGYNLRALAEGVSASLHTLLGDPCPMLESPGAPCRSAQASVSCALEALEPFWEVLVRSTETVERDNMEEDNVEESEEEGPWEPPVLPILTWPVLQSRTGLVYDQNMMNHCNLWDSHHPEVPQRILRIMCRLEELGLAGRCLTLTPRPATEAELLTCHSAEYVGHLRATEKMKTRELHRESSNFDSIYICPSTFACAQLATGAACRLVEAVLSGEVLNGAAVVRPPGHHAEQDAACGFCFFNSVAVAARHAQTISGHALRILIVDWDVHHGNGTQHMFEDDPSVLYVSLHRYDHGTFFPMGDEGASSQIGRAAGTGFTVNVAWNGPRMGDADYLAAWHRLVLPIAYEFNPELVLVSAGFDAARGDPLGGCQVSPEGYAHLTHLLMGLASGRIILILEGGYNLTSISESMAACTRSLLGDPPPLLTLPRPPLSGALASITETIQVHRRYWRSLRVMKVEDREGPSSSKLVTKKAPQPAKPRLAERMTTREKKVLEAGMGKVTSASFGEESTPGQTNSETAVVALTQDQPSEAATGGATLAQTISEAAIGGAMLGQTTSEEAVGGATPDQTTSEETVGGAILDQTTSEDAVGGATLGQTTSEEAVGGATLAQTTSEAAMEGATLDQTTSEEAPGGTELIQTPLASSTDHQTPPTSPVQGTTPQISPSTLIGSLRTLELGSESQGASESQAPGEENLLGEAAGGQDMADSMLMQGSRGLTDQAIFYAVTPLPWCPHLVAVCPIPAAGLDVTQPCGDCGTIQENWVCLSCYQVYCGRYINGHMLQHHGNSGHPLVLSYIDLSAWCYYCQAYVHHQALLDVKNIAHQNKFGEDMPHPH
As to the kind of experiment: HDAC6 Enzyme Assay. The following applies: compound concentration 0.37 μM, read-out: Percent Inhibition. In kind it is biochemical. The method, boiled down: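 Purified human HDAC6 incubated 1 h at 30° C with Ac-Arg-Gly-Lys(Ac)-AMC peptide plus compound or DMSO; stopped with trichostatin A. Deacetylated product trypsin-digested, released AMC read by fluorescence (Ex 340/Em 460 nm). Percent inhibition at one concentration or IC50 from curves relative to DMSO controls.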
With `O=C(NO)c1ccc2c(=O)n(Cc3ccc(C(F)(F)F)cc3)c(-c3ccc4ccccc4c3)nc2c1` [Compound I-85, N-hydroxy-2-(2-naphthyl)-4-oxo-3-[4-(trifluoromethyl)benzyl]-3,4-dihydroquinazoline-7-carboxamide], the inhibition at 0.37 µM was found to be 72.6%.

Regarding `CCC(C)c1nc2cc(C(=O)NO)ccc2c(=O)n1Cc1ccc(C(F)(F)F)cc1` (centres unmarked) [Compound I-100, 2-sec-butyl-N-hydroxy-4-oxo-3-[4-(trifluoromethyl)benzyl]-3,4-dihydroquinazoline-7-carboxamide], the inhibition at 0.37 µM is 90.6%.

On to `O=C(NO)c1ccc2ccn(CCC(c3ccc(Cl)cc3)C3CCNCC3)c(=O)c2c1` (centres unmarked) [Compound I-103, 2-[3-(4-chlorophenyl)-3-piperidin-4-ylpropyl]-N-hydroxy-1-oxo-1,2-dihydroisoquinoline-7-carboxamide], for which the inhibition at 0.37 µM was 100%.

As to `O=C(NO)c1ccc2c(=O)n(Cc3ccc(C(F)(F)F)cc3)c(C3CCCC3)nc2c1` [Compound I-106, 2-cyclopentyl-N-hydroxy-4-oxo-3-[4-(trifluoromethyl)benzyl]-3,4-dihydroquinazoline-7-carboxamide], the inhibition at 0.37 µM stood at 78.5%.

Still in this experiment, the particulars now being: compound concentration 0.412 μM, read-out: Percent Inhibition.
Take `CCN(CC)Cc1nc2cc(C(=O)NO)ccc2c(=O)[nH]1` [Compound I-84, 2-[(diethylamino)methyl]-N-hydroxy-4-oxo-3,4-dihydroquinazoline-7-carboxamide]: the inhibition at 0.412 µM is 60.5%.

For `O=C(NO)c1ccc2c(=O)n(-c3ccccc3)c(NCc3ccc(Cl)cc3)nc2c1` [Compound I-86, 2-[(4-chlorobenzyl)amino]-N-hydroxy-4-oxo-3-phenyl-3,4-dihydroquinazoline-7-carboxamide], the inhibition at 0.412 µM was determined as 74.2%.

Turning to `CC(C)(C)c1ccc(Cn2cnc3cc(C(=O)NO)ccc3c2=O)cc1` [Compound I-87, 3-(4-tert-butylbenzyl)-N-hydroxy-4-oxo-3,4-dihydroquinazoline-7-carboxamide], the inhibition at 0.412 µM turned out to be 91%.

With `CC1(C)CCC(C)(C)c2cc(Cn3ccc4ccc(C(=O)NO)cc4c3=O)ccc21` [Compound I-88, N-hydroxy-1-oxo-2-[(5,5,8,8-tetramethyl-5,6,7,8-tetrahydronaphthalen-2-yl)methyl]-1,2-dihydroisoquinoline-7-carboxamide], the inhibition at 0.412 µM came to 90%.

As to `CC(C)(C)OC(=O)N(CCCn1ccc2ccc(C(=O)NO)cc2c1=O)c1ccncc1` [Compound I-89, tert-butyl {3-[7-[(hydroxyamino)carbonyl]-1-oxoisoquinolin-2(1H)-yl]propyl}pyridin-4-ylcarbamate], the inhibition at 0.412 µM worked out at 95.6%.

For `O=C(NO)c1ccc2ccn(CCCOc3ccc(-c4csnn4)cc3)c(=O)c2c1` [Compound I-90, N-hydroxy-1-oxo-2-{3-[4-(1,2,3-thiadiazol-4-yl)phenoxy]propyl}-1,2-dihydroisoquinoline-7-carboxamide], the inhibition at 0.412 µM amounted to 97.7%.

Take `O=C(NO)c1ccc2ccn(CCOc3cc(C(F)(F)F)cc(C(F)(F)F)c3)c(=O)c2c1` [Compound I-91, 2-{2-[3,5-bis(trifluoromethyl)phenoxy]ethyl}-N-hydroxy-1-oxo-1,2-dihydroisoquinoline-7-carboxamide]: the inhibition at 0.412 µM is 86.9%.

For `O=C(NO)c1ccc2c(=O)[nH]c(CNCc3ccc(Cl)cc3)nc2c1` [Compound I-92, 2-{[(4-chlorobenzyl)amino]methyl}-N-hydroxy-4-oxo-3,4-dihydroquinazoline-7-carboxamide], the inhibition at 0.412 µM was determined as 90.9%.

`CC(C)(C)OC(=O)N1CCC(C)(C(=O)Nc2cccc(Cn3ccc4ccc(C(=O)NO)cc4c3=O)c2)CC1` [Compound I-93, tert-butyl 4-{[(3-{[7-[(hydroxyamino)carbonyl]-1-oxoisoquinolin-2(1H)-yl]methyl}phenyl)amino]carbonyl}-4-methylpiperidine-1-carboxylate]: the inhibition at 0.412 µM turned out to be 90.1%.

`CCCCC(CC)Cn1ccc2ccc(C(=O)NO)cc2c1=O` (centres unmarked) [Compound I-94, 2-(2-ethylhexyl)-N-hydroxy-1-oxo-1,2-dihydroisoquinoline-7-carboxamide]: the inhibition at 0.412 µM turned out to be 93.5%.

Regarding `O=C(NO)c1ccc2ccn(CCCc3c[nH]c4ccccc34)c(=O)c2c1` [Compound I-95, N-hydroxy-2-[3-(1H-indol-3-yl)propyl]-1-oxo-1,2-dihydroisoquinoline-7-carboxamide], the inhibition at 0.412 µM worked out at 98.1%.

For `O=C(NO)c1ccc2ccn(CC(c3ccccc3)C3CCCCC3)c(=O)c2c1` (centres unmarked) [Compound I-96, 2-(2-cyclohexyl-2-phenylethyl)-N-hydroxy-1-oxo-1,2-dihydroisoquinoline-7-carboxamide], the inhibition at 0.412 µM amounted to 80.9%.

As to `COc1ccc(NCCn2ccc3ccc(C(=O)NO)cc3c2=O)cc1` [Compound I-97, N-hydroxy-2-{2-[(4-methoxyphenyl)amino]ethyl}-1-oxo-1,2-dihydroisoquinoline-7-carboxamide], the inhibition at 0.412 µM came to 79.1%.

On to `O=C(NO)c1ccc2ccn(Cc3cccc(Oc4ccc(F)cc4)c3)c(=O)c2c1` [Compound I-98, 2-[3-(4-fluorophenoxy)benzyl]-N-hydroxy-1-oxo-1,2-dihydroisoquinoline-7-carboxamide], for which the inhibition at 0.412 µM amounted to 91%.

For `O=C(NO)c1ccc2ccn(CCOc3cc(Cl)cc(Cl)c3)c(=O)c2c1` [Compound I-99, 2-[2-(3,5-dichlorophenoxy)ethyl]-N-hydroxy-1-oxo-1,2-dihydroisoquinoline-7-carboxamide], the inhibition at 0.412 µM was found to be 93%.

As to `COc1cc(OC)cc(OCCn2ccc3ccc(C(=O)NO)cc3c2=O)c1` [Compound I-101, 2-[2-(3,5-dimethoxyphenoxy)ethyl]-N-hydroxy-1-oxo-1,2-dihydroisoquinoline-7-carboxamide], the inhibition at 0.412 µM turned out to be 95.7%.

For the compound `O=C(NO)c1ccc2ccn(Cc3c(F)cc(F)cc3F)c(=O)c2c1` [Compound I-102, N-hydroxy-1-oxo-2-(2,4,6-trifluorobenzyl)-1,2-dihydroisoquinoline-7-carboxamide], the inhibition at 0.412 µM is 94.3%.

In the case of `O=C(NO)c1ccc2ncn(CCc3ccccn3)c(=O)c2c1` [Compound I-104, N-hydroxy-4-oxo-3-(2-pyridin-2-ylethyl)-3,4-dihydroquinazoline-6-carboxamide], the inhibition at 0.412 µM was found to be 82.5%.

Regarding `O=C(NO)c1ccc2ccn(C3CCCC3)c(=O)c2c1` [Compound I-105, 2-cyclopentyl-N-hydroxy-1-oxo-1,2-dihydroisoquinoline-7-carboxamide], the inhibition at 0.412 µM was 86.5%.

As for `Cc1cccc(OCc2nc3cc(C(=O)NO)ccc3c(=O)[nH]2)c1` [Compound I-107, N-hydroxy-2-[(3-methylphenoxy)methyl]-4-oxo-3,4-dihydroquinazoline-7-carboxamide], the inhibition at 0.412 µM turned out to be 85.2%.

For `O=C(NO)c1ccc2ccn(CCNc3cccc(-n4cccn4)c3)c(=O)c2c1` [Compound I-108, N-hydroxy-1-oxo-2-(2-{[3-(1H-pyrazol-1-yl)phenyl]amino}ethyl)-1,2-dihydroisoquinoline-7-carboxamide], the inhibition at 0.412 µM is 91.4%.

With `O=C(NO)c1ccc2ccn(Cc3cccc(F)c3)c(=O)c2c1` [Compound I-109, 2-(3-fluorobenzyl)-N-hydroxy-1-oxo-1,2-dihydroisoquinoline-7-carboxamide], the inhibition at 0.412 µM worked out at 95.9%.
